Tests used:
Conditions in all cases: concentrations up to 10 μM
PPARδ = target: T1, PPARδ (Homo sapiens, UniProt Q03181); assay: PPARδ binding assay (SPA)
T1 construct: made in house; host or cells: HEK293 (cell lysates)
T1 sequence (Q03181 1-441): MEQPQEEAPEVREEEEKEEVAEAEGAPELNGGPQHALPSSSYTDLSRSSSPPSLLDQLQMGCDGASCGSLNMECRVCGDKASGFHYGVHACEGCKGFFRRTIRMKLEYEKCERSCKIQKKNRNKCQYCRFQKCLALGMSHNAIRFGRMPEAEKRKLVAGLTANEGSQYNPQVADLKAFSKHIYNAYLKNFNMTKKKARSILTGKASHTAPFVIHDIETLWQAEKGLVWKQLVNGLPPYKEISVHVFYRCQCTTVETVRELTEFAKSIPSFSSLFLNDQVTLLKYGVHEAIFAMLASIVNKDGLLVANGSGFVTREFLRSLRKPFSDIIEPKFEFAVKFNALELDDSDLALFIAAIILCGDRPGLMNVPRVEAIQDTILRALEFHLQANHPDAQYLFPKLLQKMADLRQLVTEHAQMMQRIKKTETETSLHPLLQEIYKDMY
T1 sequence (P19793 1-462 partner): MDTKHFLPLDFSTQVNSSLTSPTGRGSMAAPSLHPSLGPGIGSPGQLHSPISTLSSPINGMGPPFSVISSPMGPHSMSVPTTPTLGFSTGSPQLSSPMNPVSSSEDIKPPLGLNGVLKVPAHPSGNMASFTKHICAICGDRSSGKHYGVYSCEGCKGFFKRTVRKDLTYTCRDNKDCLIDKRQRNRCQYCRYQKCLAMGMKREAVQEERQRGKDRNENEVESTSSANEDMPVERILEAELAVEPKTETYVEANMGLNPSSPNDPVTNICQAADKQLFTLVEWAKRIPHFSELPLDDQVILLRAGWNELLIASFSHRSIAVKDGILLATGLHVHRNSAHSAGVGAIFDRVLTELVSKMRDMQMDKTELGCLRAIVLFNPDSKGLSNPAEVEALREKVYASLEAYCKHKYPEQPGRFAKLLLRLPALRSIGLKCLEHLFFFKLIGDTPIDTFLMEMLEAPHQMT
Method: (§1) Because GPR40 is known to be activated by ligands to PPARγ exemplified compounds are examined in PPARα, PPARδ, and PPARγ binding and functional assays to determine the selectivity of exemplified compounds for GPR40. Compounds exemplified herein are tested essentially as described below for PPAR binding and generally have binding values greater than 1000 nM with 10 μM concentrations of test compound and are thus considered negative for PPAR activity.
(§2) Binding affinities of compounds for the PPAR α, δ, and γ receptors are assessed using Scintillation Proximity Assay (SPA) technology. Biotinylated oligonucleotide Direct Repeat 2 (DR2) is used for binding the receptors to Yttrium silicate streptavidin-coated SPA beads. […] Non-specific binding is determined in the presence of 10,000 nM of the unlabeled PPAR α/δ dual agonist reference compound for the alpha and delta receptor assays and the PPARγ agonist reference compound for the gamma receptor assay. The binding reaction (100 μl per well in a 96 well [Costar 3632] plate) is incubated for 10 h and counted disintegration per minutes (dpm) on a Wallac Microbeta. Receptor binding affinity (IC50) for the compounds is determined by fitting an 11 point concentration-response curve with a 4-parameter logistic equation. Ki, is determined from the IC50 using the Cheng-Prussoff equation and Kd determined by saturation binding. […]

PPARγ = target: T2, PPARγ (Homo sapiens, UniProt P37231); assay: PPARγ binding assay (SPA); set-up: made in house; host or cells: HEK293 (cell lysates)
T2 sequence (P37231 1-505): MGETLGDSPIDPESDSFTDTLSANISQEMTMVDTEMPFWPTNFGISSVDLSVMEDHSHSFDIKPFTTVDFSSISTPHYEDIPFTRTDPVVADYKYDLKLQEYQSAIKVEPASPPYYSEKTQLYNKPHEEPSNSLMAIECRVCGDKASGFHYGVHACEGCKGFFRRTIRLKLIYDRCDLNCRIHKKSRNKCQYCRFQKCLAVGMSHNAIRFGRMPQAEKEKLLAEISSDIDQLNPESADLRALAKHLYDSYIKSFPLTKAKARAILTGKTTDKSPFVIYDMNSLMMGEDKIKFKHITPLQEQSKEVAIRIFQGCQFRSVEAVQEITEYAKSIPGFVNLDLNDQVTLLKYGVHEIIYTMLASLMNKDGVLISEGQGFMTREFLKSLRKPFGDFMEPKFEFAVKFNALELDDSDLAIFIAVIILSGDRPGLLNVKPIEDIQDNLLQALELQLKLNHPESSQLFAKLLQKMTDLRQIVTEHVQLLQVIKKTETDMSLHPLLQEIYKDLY
T2 sequence (P19793 1-462 partner): T1 sequence (P19793 1-462 partner)
Method: as §1, §2

PPARα = target: T3, PPARα (Homo sapiens, UniProt Q07869); assay: PPARα binding assay (SPA)
T3 construct: made in house; host or cells: HEK293 (cell lysates)
T3 sequence (Q07869 1-468): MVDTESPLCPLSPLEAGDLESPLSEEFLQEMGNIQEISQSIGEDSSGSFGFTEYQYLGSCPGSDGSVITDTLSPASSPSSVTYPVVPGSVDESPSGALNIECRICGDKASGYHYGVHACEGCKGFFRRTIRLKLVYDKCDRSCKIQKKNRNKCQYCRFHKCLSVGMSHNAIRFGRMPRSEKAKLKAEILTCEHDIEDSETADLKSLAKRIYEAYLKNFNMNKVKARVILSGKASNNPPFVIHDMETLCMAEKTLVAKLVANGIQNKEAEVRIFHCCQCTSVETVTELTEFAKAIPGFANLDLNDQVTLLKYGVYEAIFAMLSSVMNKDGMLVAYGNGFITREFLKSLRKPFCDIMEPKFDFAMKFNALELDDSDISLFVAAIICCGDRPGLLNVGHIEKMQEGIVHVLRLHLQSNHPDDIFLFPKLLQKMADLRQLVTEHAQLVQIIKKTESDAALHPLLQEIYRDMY
T3 sequence (P19793 1-462 partner): T1 sequence (P19793 1-462 partner)
Method: as §1, §2

binding detected (PPARδ): no binding is detected | binding detected (PPARγ): no binding is detected | binding detected (PPARα): no binding is detected
SMILES: CC#C[C@@H](CC(=O)O)c1ccc(OCc2ccc(CN3CCC4(C=Cc5ccccc54)CC3)cc2)cc1 [Example 1, (3S)-3-(4-{[4-(1′H-Spiro[indene-1,4′-piperidin]-1′-ylmethyl)benzyl]oxy}phenyl)hex-4-ynoic acid]

— patent publication US8383642B2, “Spiropiperidine compounds” (Eli Lilly and Company, priority 2009, dated 2013)
